pIC50: −log10 of the molar value. Read-outs that look alike come from different tables or passages of the source.
Assays:
TEM-1 = TEM-1 (Escherichia coli, UniProt P62593); assay: β-lactamase inhibitory activity, IC50 (nitrocefin hydrolysis); format: biochemical
Protocol: (§3) Enzymes were cloned in E. coli expression vector, expressed and purified in house using classical procedures. […] After 30 min of pre-incubation at room temperature, 15 μL of NCF (100 μM final) were finally added in each well. […] Enzyme activity was obtained by subtracting the background from the final signal, and was converted to enzyme inhibition using non inhibited wells. IC50 curves were fitted to a classical Langmuir equilibrium model with Hill slope using XLFIT (IDBS).

SHV-1 = SHV-1 (Klebsiella pneumoniae, UniProt P0AD64); assay: as above; format: biochemical
Protocol: as §3

SHV-12 = SHV-12 (Klebsiella pneumoniae, UniProt P0AD64, E235K/G234S/L31Q); assay: as above; format: biochemical; conditions: SHV-12; 30 min pre-incubation, nitrocefin 100 μM; read-out: IC50
Chain of SHV-12 (P0AD64 22-286 L31Q/G234S/E235K): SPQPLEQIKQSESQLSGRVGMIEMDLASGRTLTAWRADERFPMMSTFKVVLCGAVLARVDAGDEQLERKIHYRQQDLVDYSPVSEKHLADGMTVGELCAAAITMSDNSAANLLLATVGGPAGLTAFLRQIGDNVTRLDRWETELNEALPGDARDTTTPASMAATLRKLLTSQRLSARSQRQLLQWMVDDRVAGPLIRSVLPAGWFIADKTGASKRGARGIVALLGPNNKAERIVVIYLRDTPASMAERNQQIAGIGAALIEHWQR
Protocol: (§4) Method 1: β-Lactamase Inhibitory Activity, Determination of IC50 (Table 1)
as §3

CTX-M-15 = CTX-M-15 (Escherichia coli, UniProt Q9EXV5); assay: as above; format: biochemical
Chain of CTX-M-15 (Q9EXV5 entry or part of it): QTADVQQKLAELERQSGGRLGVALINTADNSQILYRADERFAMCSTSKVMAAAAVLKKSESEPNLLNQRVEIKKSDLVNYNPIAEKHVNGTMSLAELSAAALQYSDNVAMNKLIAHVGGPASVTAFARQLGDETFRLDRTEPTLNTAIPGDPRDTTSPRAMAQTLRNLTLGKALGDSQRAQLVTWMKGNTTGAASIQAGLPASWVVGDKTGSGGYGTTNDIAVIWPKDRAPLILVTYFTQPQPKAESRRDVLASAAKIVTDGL
Protocol: as §4, §3

KPC-2 = KPC-2 (Klebsiella pneumoniae, UniProt Q9F663); assay: as above; format: biochemical
Chain of KPC-2 (Q9F663 25-293 limits assumed): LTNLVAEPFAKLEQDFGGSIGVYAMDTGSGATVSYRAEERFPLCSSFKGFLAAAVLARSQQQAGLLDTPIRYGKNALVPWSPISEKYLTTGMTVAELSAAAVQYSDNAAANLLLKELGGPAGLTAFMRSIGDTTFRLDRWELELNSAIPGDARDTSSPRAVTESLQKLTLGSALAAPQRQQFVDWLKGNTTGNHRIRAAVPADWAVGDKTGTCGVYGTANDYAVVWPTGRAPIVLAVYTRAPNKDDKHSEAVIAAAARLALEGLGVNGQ
Protocol: as §4, §3

SAU PC1 = SAU PC1 (Staphylococcus aureus, UniProt P00807); assay: as above; format: biochemical, S. aureus; conditions: SAU PC1; 30 min pre-incubation, nitrocefin 100 μM; read-out: IC50
Chain of SAU PC1 (P00807 25-281): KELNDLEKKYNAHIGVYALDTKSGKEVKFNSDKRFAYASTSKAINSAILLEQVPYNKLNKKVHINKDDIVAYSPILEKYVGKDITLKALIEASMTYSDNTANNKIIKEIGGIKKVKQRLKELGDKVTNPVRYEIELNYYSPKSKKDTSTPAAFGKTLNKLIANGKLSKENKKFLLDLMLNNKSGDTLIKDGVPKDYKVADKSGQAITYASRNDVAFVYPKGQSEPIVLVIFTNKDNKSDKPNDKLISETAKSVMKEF
Protocol: as §4, §3

P99 ampC = P99 ampC (Enterobacter cloacae, UniProt P05364); assay: as above; format: biochemical
Chain of P99 ampC (P05364 21-381): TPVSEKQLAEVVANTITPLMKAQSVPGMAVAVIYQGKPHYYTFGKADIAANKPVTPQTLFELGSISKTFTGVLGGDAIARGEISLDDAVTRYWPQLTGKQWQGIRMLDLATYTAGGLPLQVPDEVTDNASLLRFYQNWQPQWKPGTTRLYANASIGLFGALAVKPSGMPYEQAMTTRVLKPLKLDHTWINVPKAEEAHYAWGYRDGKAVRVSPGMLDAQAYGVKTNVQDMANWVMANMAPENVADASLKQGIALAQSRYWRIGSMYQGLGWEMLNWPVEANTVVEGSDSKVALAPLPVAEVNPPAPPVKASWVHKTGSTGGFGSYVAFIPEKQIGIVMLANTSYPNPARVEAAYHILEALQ
Protocol: as §4, §3

PAE ampC = PAE ampC (Pseudomonas aeruginosa, UniProt P24735); assay: as above; format: biochemical, P. aeruginosa
Chain of PAE ampC (P24735 27-397): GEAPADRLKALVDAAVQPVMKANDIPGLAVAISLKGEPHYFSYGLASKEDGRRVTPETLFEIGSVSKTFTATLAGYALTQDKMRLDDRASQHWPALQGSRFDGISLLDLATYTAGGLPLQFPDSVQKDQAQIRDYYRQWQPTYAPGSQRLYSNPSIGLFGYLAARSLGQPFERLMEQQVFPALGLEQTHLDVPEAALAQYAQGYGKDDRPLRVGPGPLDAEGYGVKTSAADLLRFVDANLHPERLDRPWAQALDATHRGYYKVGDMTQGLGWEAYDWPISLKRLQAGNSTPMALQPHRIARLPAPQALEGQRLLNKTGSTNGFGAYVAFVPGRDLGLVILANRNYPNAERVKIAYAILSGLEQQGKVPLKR
Protocol: as §3

OXA-1 = OXA-1 (Escherichia coli, UniProt P13661); assay: as above; format: biochemical
Chain of OXA-1 (P13661 26-276): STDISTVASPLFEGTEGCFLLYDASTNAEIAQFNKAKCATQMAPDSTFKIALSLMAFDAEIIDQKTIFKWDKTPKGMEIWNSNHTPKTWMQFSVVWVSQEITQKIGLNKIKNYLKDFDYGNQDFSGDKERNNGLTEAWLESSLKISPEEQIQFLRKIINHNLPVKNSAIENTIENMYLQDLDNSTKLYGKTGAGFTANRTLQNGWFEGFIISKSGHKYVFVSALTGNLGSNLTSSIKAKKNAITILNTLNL
Protocol: as §3

OXA-11 = OXA-11 (Pseudomonas aeruginosa, UniProt Q06778); assay: as above; format: biochemical
Chain of OXA-11 (Q06778 21-266): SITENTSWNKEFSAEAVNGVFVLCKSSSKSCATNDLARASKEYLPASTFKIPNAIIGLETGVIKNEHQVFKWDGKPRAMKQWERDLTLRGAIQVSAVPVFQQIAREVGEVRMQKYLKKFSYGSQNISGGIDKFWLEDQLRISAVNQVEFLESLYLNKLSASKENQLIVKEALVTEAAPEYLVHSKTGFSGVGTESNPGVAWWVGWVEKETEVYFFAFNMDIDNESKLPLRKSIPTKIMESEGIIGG
Protocol: as §3

OXA-15 = OXA-15 (Pseudomonas aeruginosa, UniProt Q51574); assay: as above; format: biochemical
Chain of OXA-15 (Q51574 22-275): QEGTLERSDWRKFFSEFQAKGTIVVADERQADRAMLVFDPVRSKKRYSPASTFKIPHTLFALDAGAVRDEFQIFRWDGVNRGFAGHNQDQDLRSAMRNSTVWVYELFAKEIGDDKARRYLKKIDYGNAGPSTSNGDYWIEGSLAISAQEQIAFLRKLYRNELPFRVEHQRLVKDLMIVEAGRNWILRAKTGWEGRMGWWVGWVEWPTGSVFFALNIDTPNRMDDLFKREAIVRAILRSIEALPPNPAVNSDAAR
Protocol: as §3

OXA-23 = OXA-23 (Acinetobacter baumannii, UniProt Q9L4P2); assay: as above; format: biochemical
Chain of OXA-23 (Q9L4P2 18-273): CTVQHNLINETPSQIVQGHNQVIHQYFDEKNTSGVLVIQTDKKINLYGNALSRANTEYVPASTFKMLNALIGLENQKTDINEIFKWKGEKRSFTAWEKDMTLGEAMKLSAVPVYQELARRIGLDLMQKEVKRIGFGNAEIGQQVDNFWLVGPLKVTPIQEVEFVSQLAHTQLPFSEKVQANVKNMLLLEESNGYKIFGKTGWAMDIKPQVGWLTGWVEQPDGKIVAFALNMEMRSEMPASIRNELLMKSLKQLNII
Protocol: as §3

OXA-40 = OXA-40 (Acinetobacter baumannii, UniProt Q8RLA6); assay: as above; format: biochemical
Chain of OXA-40 (Q8RLA6 entry or part of it): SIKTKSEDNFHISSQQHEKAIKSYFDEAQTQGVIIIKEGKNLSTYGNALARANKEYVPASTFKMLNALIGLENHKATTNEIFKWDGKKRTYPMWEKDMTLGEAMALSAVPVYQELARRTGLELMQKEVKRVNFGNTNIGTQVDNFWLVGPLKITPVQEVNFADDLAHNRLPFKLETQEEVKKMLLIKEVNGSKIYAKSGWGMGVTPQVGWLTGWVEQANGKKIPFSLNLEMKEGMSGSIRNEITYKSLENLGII
Protocol: as §3

OXA-48 = OXA-48 (Klebsiella pneumoniae, UniProt Q6XEC0); assay: as above; format: biochemical
Chain of OXA-48 (Q6XEC0 23-265 limits assumed): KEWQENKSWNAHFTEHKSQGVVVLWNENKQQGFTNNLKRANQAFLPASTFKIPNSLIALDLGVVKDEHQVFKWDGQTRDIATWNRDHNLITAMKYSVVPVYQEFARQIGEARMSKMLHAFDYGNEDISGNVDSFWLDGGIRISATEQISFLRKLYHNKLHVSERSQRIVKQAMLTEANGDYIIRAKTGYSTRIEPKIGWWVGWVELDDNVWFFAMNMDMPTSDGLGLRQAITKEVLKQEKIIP
Protocol: as §3

OXA-58 = OXA-58 (Acinetobacter baumannii, UniProt Q2TR58); assay: as above; format: biochemical
Chain of OXA-58 (Q2TR58 19-280): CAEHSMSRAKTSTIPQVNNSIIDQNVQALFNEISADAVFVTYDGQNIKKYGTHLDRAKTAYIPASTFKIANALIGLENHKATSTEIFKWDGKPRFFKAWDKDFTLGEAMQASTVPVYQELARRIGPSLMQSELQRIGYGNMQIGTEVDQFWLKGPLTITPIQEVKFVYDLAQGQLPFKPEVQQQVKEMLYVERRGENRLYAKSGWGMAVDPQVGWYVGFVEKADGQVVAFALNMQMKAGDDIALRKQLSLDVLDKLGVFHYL
Protocol: as §3

[1] = test system: Citrobacter freundii (CFR) isolates; assay: MIC of compounds alone and combined with antibacterials, broth microdilution (CLSI); format: cell-based; conditions: Citrobacter freundii, strain CFR UFR250; compound alone
Protocol: (§1) Method 2: MIC of Compounds Alone and Combined with Antibacterials Against Bacterial Isolates
(§2) Compounds of the present invention were assessed against genotyped bacterial strains (Table 3, 4) alone or in combination with an antibacterial (Table 2). […] Log phase bacterial suspensions were adjusted to a final density of 5.10^5 CFU/mL in cation-adjusted Mueller-Hinton broth (ca-MHB; Becton-Dickinson and Company) and added to each well (98 μL). Microplates were incubated for 16-20 h at 35° C. in ambient air. The MIC of the compounds was defined as the lowest concentration of said compounds that prevented bacterial growth as read by visual inspection. The MIC of ATB at each compound concentration was defined as the lowest concentration of ATB that prevented bacterial growth as read by visual inspection.

[2] = test system: Enterobacter aerogenes (EAE) isolates; assay: as above; format: cell-based; conditions: Klebsiella aerogenes
Protocol: as §1, §2

[3] = test system: Escherichia coli (ECO) isolates; assay: as above; format: cell-based; conditions: Escherichia coli, compound alone, read-out: MIC
Protocol: as §1, §2

[4] = test system: Klebsiella pneumoniae (KPN) isolates; assay: as above; format: cell-based; conditions: Klebsiella pneumoniae, compound alone, read-out: MIC
Protocol: as §1, §2

[5] = test system: Serratia marcescens (SMA) isolates; assay: as above; format: cell-based; conditions: Serratia marcescens; strain SMA UFR143; compound alone; read-out: MIC
Protocol: as §1, §2

[6] = test system: Proteus mirabilis (PMI) isolates; assay: microbe, parasite or virus in culture; format: cell-based; conditions: Proteus mirabilis, compound alone, read-out: MIC
Protocol: as §1, §2

[7] = test system: Providencia stuartii (PST) isolates; assay: MIC of compounds alone and combined with antibacterials, broth microdilution (CLSI); format: cell-based; conditions: Providencia stuartii; strain PST UFR235; compound alone; read-out: MIC
Protocol: as §1
Compounds of the present invention were assessed against genotyped bacterial strains (Table 3, 4) alone or in combination with an antibacterial (Table 2). […]. Briefly, compounds alone according to the invention were prepared in DMSO and spotted (2 μL each) on sterile polystyrene plates (Corning, 3788). Combinations of compounds and antibiotics dilutions were prepared in DMSO and spotted (1 μL each) on sterile polystyrene plates (Corning, 3788). Log phase bacterial suspensions were adjusted to a final density of 5.10^5 CFU/mL in cation-adjusted Mueller-Hinton broth (ca-MHB; Becton-Dickinson and Company) and added to each well (98 μL). Microplates were incubated for 16-20 h at 35° C. in ambient air. The MIC of the compounds was defined as the lowest concentration of said compounds that prevented bacterial growth as read by visual inspection. The MIC of ATB at each compound concentration was defined as the lowest concentration of ATB that prevented bacterial growth as read by visual inspection.

Chain of SHV-1 (P0AD64 22-286): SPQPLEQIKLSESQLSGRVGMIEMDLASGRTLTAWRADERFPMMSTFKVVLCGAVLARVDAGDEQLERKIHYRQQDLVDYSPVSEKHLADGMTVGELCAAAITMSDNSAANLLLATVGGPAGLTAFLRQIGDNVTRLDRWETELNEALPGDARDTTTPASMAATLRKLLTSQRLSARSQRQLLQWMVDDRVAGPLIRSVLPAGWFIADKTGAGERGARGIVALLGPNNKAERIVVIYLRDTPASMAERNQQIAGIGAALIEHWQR
Chain of TEM-1 (P62593 24-286 limits assumed): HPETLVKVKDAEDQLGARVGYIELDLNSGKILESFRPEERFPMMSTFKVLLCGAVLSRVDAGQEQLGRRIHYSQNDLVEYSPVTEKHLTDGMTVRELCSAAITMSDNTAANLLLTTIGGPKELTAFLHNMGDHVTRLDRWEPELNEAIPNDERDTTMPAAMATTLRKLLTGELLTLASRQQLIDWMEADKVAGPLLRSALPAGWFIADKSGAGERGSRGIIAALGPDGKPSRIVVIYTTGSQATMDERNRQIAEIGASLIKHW

O=C1N2CC=C(c3cnoc3)C(C2)N1OC(F)(F)C(=O)[O-].[Li+] (stereo not drawn) [AF1, Lithium difluoro-(4-isoxazol-4-yl-7-oxo-1,6-diaza-bicyclo[3.2.1]oct-3-en-6-yloxy)-acetate]
pIC50 (TEM-1): 8.00 | pIC50 (SHV-1): 7.70 | pIC50 (SHV-12): 8.42 | pIC50 (CTX-M-15): 8.62 | pIC50 (KPC-2): 6.29 | pIC50 (SAU PC1): 6.25 | pIC50 (P99 ampC): 5.66 | pIC50 (PAE ampC): 5.35 | pIC50 (OXA-1): 5.80 | pIC50 (OXA-11): 6.60 | pIC50 (OXA-15): 7.62 | pIC50 (OXA-23): 6.96 | pIC50 (OXA-40): 6.92 | pIC50 (OXA-48): 8.52 | pIC50 (OXA-58): 7.82 | MIC [1]: > 32 µg/mL | MIC [2]: 32 µg/mL | MIC ([3]; strain ECO 190317): 2 µg/mL | MIC ([3]; strain ECO 190457): 4 µg/mL | MIC ([3]; strain ECO UFR16): 8 µg/mL | MIC ([3]; strain ECO UFR20): 16 µg/mL | MIC ([3]; strain ECO UFR61O): 8 µg/mL | MIC ([3]; strain ECO UFR209): 8 µg/mL | MIC ([4]; strain KPN 110376): > 32 µg/mL | MIC ([4]; strain KPN 131119): > 32 µg/mL | MIC ([4]; strain KPN 190270): > 32 µg/mL | MIC ([4]; strain KPN UFR25): > 32 µg/mL | MIC ([4]; strain KPN UFR66): > 32 µg/mL | MIC ([4]; strain KPN UFR68): > 32 µg/mL | MIC [5]: 32 µg/mL | MIC ([6]; strain PMI UFR126): 8 µg/mL | MIC ([6]; strain PMI UFR127): 4 µg/mL | MIC [7]: > 32 µg/mL
